This is an account of results in PMC7228129, “Evaluation of Developmental Toxicity, Developmental Neurotoxicity, and Tissue Dose in Zebrafish Exposed to GenX and Other PFAS” (Environmental Health Perspectives, 2020).

A short description of this data set: Tissue analysis (internal tissue dose of parent PFAS, bioconcentration factor). The class given is in vivo, Danio rerio. The conditions noted are these: for BCFdry: 6-d zebrafish assay; for BCFdry / concentration at 6 dpf: 0.4% DMSO; for concentration at 6 dpf: zebrafish (Danio rerio), whole larvae (pools of 10, homogenised), other: waterborne exposure in the well medium, 6 dpf larvae, dry weight 44 μg per larva, read-out: Measured tissue dose; for Dil Corrected Reported Conc. (fMole/larvae), measured tissue concentration: zebrafish larvae, replicate samples per experiment/plate. On the procedure: Zebrafish were exposed to 25.1, 44.8, or 80.0μM ADONA, PFOA, PFESA1, or PFHxA, 14.0, 25.1, or 44.8μM PFHxS, or 1.0, 1.8, or 3.1μM PFOS, or 0.4% DMSO. The highest concentration evaluated was the no observed effect concentration (NOEC) determined in Study 1. In Study 2, zebrafish were exposed to 25.1, 44.8, or 80.0μM GenX Free Acid or 0.4% DMSO. According to the previously described microtiter plate inclusion criterion, 15/15 plates were included in the study. Larvae were anesthetized by rapid cooling in chilled 10% HBSS. Groups of 10 anesthetized larvae were pooled to comprise one biological replicate ( n=4 ) in 500μL of 10% HBSS, flash frozen in liquid nitrogen, and stored at −80°C . In the case of ADONA, n=5 .
Tissue samples were prepared by protein precipitation. Flash frozen samples, consisting of pools of ten 6-dpf zebrafish larvae, were homogenized using ∼100mg of 1.0-mm diameter zirconia/silica beads and a Fast-Prep-24™ homogenizer (MP Biomedicals) in 100μL 0.1M formic acid fortified with the surrogate (i.e., PFNA). Protein was precipitated from the homogenate with 400μL of acetonitrile containing internal standards and separated by centrifugation at 14,000 rpm for 15 min at 4°C. Fifty microliters of the extract was diluted with 200μL aqueous 0.4 mM ammonium formate in the LC vial for analysis. Standards and samples were analyzed with Vanquish UPLC and Orbitrap Fusion mass spectrometer (Thermo Electron) operated in negative ESI mode. ESI source conditions were optimized for the [M-H]^− ion of PFAS as follows: spray voltage −3.5 kV , sheath gas 25 au (arbitrary units), aux gas 6 au, sweep gas 0 au, ion transfer tube temperature 300°C, and vaporizer temperature […]. High-resolution accurate mass (HRAM) MS1 scans were collected with the following parameters: detector type orbitrap, orbitrap resolution 30,000 full width at half maximum (FWHM), normal mass range, Use quadrapole isolation=true , scan range 70–700m/z , radio frequency (RF) lens 60%, automatic gain control (AGC) target 4.00×10^5 , max injection time of 50 ms , 1 microscan, data type set to profile, negative polarity, and source fragmentation disabled. Data-dependent orbitrap MSMS (ddMS2-OT) scans were collected for the [M-H]^− ion [ M-H-CO2 for GenX]^– using a target mass list for the eight PFAS and PFNA surrogate for identity confirmation. The apex detection was set to an expected peak width of 2 s at FWHM and desired apex peak window of 30%. The dynamic exclusion parameters were set to exclude after a one-time, 60-s exclusion duration, low and high mass tolerances of 10 ppm , and exclude isotope was set to true. The intensity threshold for collecting an MSMS scan was set to 2.5E+04 . Fragmentation was done by high-energy collisional dissociation (HCD). The ddMS2-OT scans were collected with the following parameters: orbitrap isolation mode, isolation window of 1.6m/z , isolation offset off, stepped HCD collision energy of 30%±10% , scan range of auto mass-to-charge ratio normal, orbitrap resolution of 30,000 FWHM, first mass 75m/z , max injection time of […], AGC target 5.00×10^4 , inject ions from available parallelizable time set to true, max injection time of 54 ms, 1 microscan, and data type set to centroid. UPLC separation was achieved using ACQUITY UPLC BEH C18 Column, 130Å , 1.7μM , 2.1mm×50mm (Waters Corp P/N 186,002,350) at 50°C with gradient elution at a flow rate of 300μL/min using 0.4 mM ammonium formate in acetonitrile and water with a 10-μL injection. Data collection, integration, calibration, and quantitation were performed using Xcalibur software (version 4.1; Thermo Electron). Concentration for each PFAS analyte was determined by internal standard technique using isotopically labeled internal standards and matrix-matched calibration standards. Quantitative analysis was performed using high-resolution MS1-extracted ion chromatograms. […]

Where “and” joins values, the source holds several entries; their conditions need not be identical. Equal entries are not always repeated. Where two headings read alike, the source gives them in different places.

For `O=S(=O)(O)C(F)(F)C(F)(F)C(F)(F)C(F)(F)C(F)(F)C(F)(F)C(F)(F)C(F)(F)F` [PFOS, Perfluorooctanesulfonic acid], under “among chemicals assessed, from BCF values”, the “Bioaccumulation ranking” value is “most bioaccumulative”. For the same compound, the BCFdry reads like this: (nominal 1.0 μM) 1,374.89 L/kg; (nominal 1.8 μM) 1,348.46 L/kg; (nominal 3.1 μM) 684.03 L/kg. Further, the concentration at 6 dpf is, setting by setting: (nominal 1.0 μM daily 0–5 dpf) 220000 ± 109000 ng/g; (nominal 1.8 μM daily 0–5 dpf) 422000 ± 183000 ng/g; (nominal 3.1 μM daily 0–5 dpf) 678000 ± 53500 ng/g. Also, the “Dil Corrected Reported Conc. (fMole/larvae), measured tissue concentration” value was 29113.1 fMole/larvae and 7862.61 fMole/larvae and 11812.2 fMole/larvae and 28665.6 fMole/larvae (exposure Concentration 0.986 µM); 24142 fMole/larvae and 18963.9 fMole/larvae and 47666.3 fMole/larvae and 57759 fMole/larvae (exposure Concentration 1.76 µM); 57262.1 fMole/larvae and 67321.8 fMole/larvae and 54771.6 fMole/larvae and 59188.7 fMole/larvae (exposure Concentration 3.144 µM).
